Assay results as given in the supplement of paper PMC10307832.

Key:
Assay in all cases: relative viability (nuclei count vs DMSO), 5 days (fraction); higher = more cells survive
Adavosertib + Phenformin = compound: C=CCn1c(=O)c2cnc(Nc3ccc(N4CCN(C)CC4)cc3)nc2n1-c1cccc(C(C)(C)O)n1 [Adavosertib] + N=C(N)NC(=N)NCCc1ccccc1 [Phenformin] (partner 250 µM)
Outline: (§1)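 Relative viability is defined as nuclei in treated wells over nuclei in vehicle wells. Duplicate plates were run and medians reported. Lung cancer cell lines in 1536-well plates were dosed by pin tool one day after seeding, with one drug or with a fixed anchor-drug dose plus five library-drug doses (not always all listed) in √10 steps, and nuclei were counted after 5 days.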

Nelarabine + Navitoclax = compound: COc1nc(N)nc2c1ncn2[C@@H]1O[C@H](CO)[C@@H](O)[C@@H]1O [Nelarabine] + CC1(C)CCC(c2ccc(Cl)cc2)=C(CN2CCN(c3ccc(C(=O)NS(=O)(=O)c4ccc(N[C@H](CCN5CCOCC5)CSc5ccccc5)c(S(=O)(=O)C(F)(F)F)c4)cc3)CC2)C1 [Navitoclax] (partner 0.5 µM)
Outline: as §1

Adavosertib + Decitabine = compound: C=CCn1c(=O)c2cnc(Nc3ccc(N4CCN(C)CC4)cc3)nc2n1-c1cccc(C(C)(C)O)n1 [Adavosertib] + Nc1ncn([C@H]2C[C@H](O)[C@@H](CO)O2)c(=O)n1 [Decitabine] (partner 2 µM)
Outline: as §1

Adavosertib + Trametinib = compound: C=CCn1c(=O)c2cnc(Nc3ccc(N4CCN(C)CC4)cc3)nc2n1-c1cccc(C(C)(C)O)n1 [Adavosertib] + CC(=O)Nc1cccc(-n2c(=O)n(C3CC3)c(=O)c3c(Nc4ccc(I)cc4F)n(C)c(=O)c(C)c32)c1 [Trametinib] (partner 0.02 µM)
Outline: as §1

For NCI-H1975, the relative viability (Adavosertib + Phenformin; first compound 0.01 µM) was 0.419, the relative viability (Adavosertib + Phenformin; first compound 0.03162 µM) was 0.392 and the relative viability (Adavosertib + Phenformin; first compound 0.1 µM) was 0.389. The relative viability (Adavosertib + Phenformin; first compound 0.3162 µM) was 0.309, the relative viability (Nelarabine + Navitoclax; first compound 0.01 µM) was 1.27 and the relative viability (Nelarabine + Navitoclax; first compound 0.03162 µM) was 0.948. The relative viability (Nelarabine + Navitoclax; first compound 0.1 µM) was 1.26, the relative viability (Nelarabine + Navitoclax; first compound 0.3162 µM) was 1.39 and the relative viability (Nelarabine + Navitoclax; first compound 1 µM) was 1.14. For the same cell line, the relative viability (Adavosertib + Decitabine; first compound 0.01 µM) was 0.37, the relative viability (Adavosertib + Decitabine; first compound 0.03162 µM) was 0.412 and the relative viability (Adavosertib + Decitabine; first compound 0.1 µM) was 0.439. It also gave a relative viability (Adavosertib + Decitabine; first compound 0.3162 µM) of 0.399, a relative viability (Adavosertib + Trametinib; first compound 0.01 µM) of 0.303 and a relative viability (Adavosertib + Trametinib; first compound 0.03162 µM) of 0.309. For the same cell line, the relative viability (Adavosertib + Trametinib; first compound 0.1 µM) was 0.327 and the relative viability (Adavosertib + Trametinib; first compound 0.3162 µM) was 0.415.
Calu-6 gave a relative viability (Nelarabine + Navitoclax; first compound 0.01 µM) of 1.17, a relative viability (Nelarabine + Navitoclax; first compound 0.1 µM) of 0.892 and a relative viability (Nelarabine + Navitoclax; first compound 0.3162 µM) of 0.851. For the same cell line, the relative viability (Nelarabine + Navitoclax; first compound 1 µM) was 0.909.
Work on NCI-H650 yielded a relative viability (Adavosertib + Phenformin; first compound 0.01 µM) of 0.422, a relative viability (Adavosertib + Phenformin; first compound 0.03162 µM) of 0.498 and a relative viability (Adavosertib + Phenformin; first compound 0.1 µM) of 0.458. The relative viability (Adavosertib + Phenformin; first compound 0.3162 µM) was 0.377, the relative viability (Adavosertib + Decitabine; first compound 0.01 µM) was 0.352 and the relative viability (Adavosertib + Decitabine; first compound 0.03162 µM) was 0.319. The relative viability (Adavosertib + Decitabine; first compound 0.1 µM) was 0.342, the relative viability (Adavosertib + Decitabine; first compound 0.3162 µM) was 0.286 and the relative viability (Adavosertib + Trametinib; first compound 0.01 µM) was 0.935. For the same cell line, the relative viability (Adavosertib + Trametinib; first compound 0.03162 µM) was 1.01, the relative viability (Adavosertib + Trametinib; first compound 0.1 µM) was 0.942 and the relative viability (Adavosertib + Trametinib; first compound 0.3162 µM) was 1.07.
NCI-H1648 gave a relative viability (Adavosertib + Decitabine; first compound 0.01 µM) of 0.491, a relative viability (Adavosertib + Decitabine; first compound 0.03162 µM) of 0.527 and a relative viability (Adavosertib + Decitabine; first compound 0.1 µM) of 0.448. The relative viability (Adavosertib + Decitabine; first compound 0.3162 µM) was 0.422, the relative viability (Adavosertib + Trametinib; first compound 0.01 µM) was 0.536 and the relative viability (Adavosertib + Trametinib; first compound 0.03162 µM) was 0.473. For the same cell line, the relative viability (Adavosertib + Trametinib; first compound 0.1 µM) was 0.594 and the relative viability (Adavosertib + Trametinib; first compound 0.3162 µM) was 0.448.
NCI-H2228 was tested, and the relative viability (Adavosertib + Phenformin; first compound 0.01 µM) was 0.252, the relative viability (Adavosertib + Phenformin; first compound 0.03162 µM) was 0.27 and the relative viability (Adavosertib + Phenformin; first compound 0.1 µM) was 0.257. The relative viability (Adavosertib + Phenformin; first compound 0.3162 µM) was 0.243, the relative viability (Nelarabine + Navitoclax; first compound 0.01 µM) was 1.3 and the relative viability (Nelarabine + Navitoclax; first compound 0.03162 µM) was 1.11. For the same cell line, the relative viability (Nelarabine + Navitoclax; first compound 0.3162 µM) was 1.33, the relative viability (Nelarabine + Navitoclax; first compound 1 µM) was 0.722 and the relative viability (Adavosertib + Trametinib; first compound 0.03162 µM) was 0.498. It also gave a relative viability (Adavosertib + Trametinib; first compound 0.1 µM) of 0.465 and a relative viability (Adavosertib + Trametinib; first compound 0.3162 µM) of 0.404.
CAL-12T was tested, and the relative viability (Adavosertib + Phenformin; first compound 0.01 µM) was 0.576, the relative viability (Adavosertib + Phenformin; first compound 0.03162 µM) was 0.545 and the relative viability (Adavosertib + Phenformin; first compound 0.1 µM) was 0.573. For the same cell line, the relative viability (Adavosertib + Phenformin; first compound 0.3162 µM) was 0.336, the relative viability (Nelarabine + Navitoclax; first compound 0.01 µM) was 1.37 and the relative viability (Nelarabine + Navitoclax; first compound 0.03162 µM) was 1.11. For the same cell line, the relative viability (Nelarabine + Navitoclax; first compound 0.1 µM) was 1.31, the relative viability (Nelarabine + Navitoclax; first compound 0.3162 µM) was 1.41 and the relative viability (Nelarabine + Navitoclax; first compound 1 µM) was 1.14. For the same cell line, the relative viability (Adavosertib + Trametinib; first compound 0.01 µM) was 0.334, the relative viability (Adavosertib + Trametinib; first compound 0.03162 µM) was 0.338 and the relative viability (Adavosertib + Trametinib; first compound 0.1 µM) was 0.312. The relative viability (Adavosertib + Trametinib; first compound 0.3162 µM) was 0.29.
In the case of EBC-1, the relative viability (Nelarabine + Navitoclax; first compound 0.01 µM) is reported as 0.403, the relative viability (Nelarabine + Navitoclax; first compound 0.03162 µM) is reported as 0.261 and the relative viability (Nelarabine + Navitoclax; first compound 0.1 µM) is reported as 0.375. The relative viability (Nelarabine + Navitoclax; first compound 0.3162 µM) was 0.432 and the relative viability (Nelarabine + Navitoclax; first compound 1 µM) was 0.381.
For A549, the relative viability (Adavosertib + Phenformin; first compound 0.01 µM) was 0.218, the relative viability (Adavosertib + Phenformin; first compound 0.03162 µM) was 0.229 and the relative viability (Adavosertib + Phenformin; first compound 0.1 µM) was 0.14. It also gave a relative viability (Adavosertib + Phenformin; first compound 0.3162 µM) of 0.173, a relative viability (Nelarabine + Navitoclax; first compound 0.01 µM) of 1.56 and a relative viability (Nelarabine + Navitoclax; first compound 0.03162 µM) of 1.29. The relative viability (Nelarabine + Navitoclax; first compound 0.1 µM) was 1.24, the relative viability (Nelarabine + Navitoclax; first compound 0.3162 µM) was 1.17 and the relative viability (Nelarabine + Navitoclax; first compound 1 µM) was 1.18. The relative viability (Adavosertib + Decitabine; first compound 0.01 µM) was 0.28, the relative viability (Adavosertib + Decitabine; first compound 0.03162 µM) was 0.257 and the relative viability (Adavosertib + Decitabine; first compound 0.1 µM) was 0.298. It also gave a relative viability (Adavosertib + Decitabine; first compound 0.3162 µM) of 0.291.
In the case of NCI-H2342, the relative viability (Adavosertib + Phenformin; first compound 0.01 µM) is reported as 0.569, the relative viability (Adavosertib + Phenformin; first compound 0.03162 µM) is reported as 0.587 and the relative viability (Adavosertib + Phenformin; first compound 0.1 µM) is reported as 0.571. The relative viability (Adavosertib + Phenformin; first compound 0.3162 µM) was 0.572, the relative viability (Adavosertib + Decitabine; first compound 0.01 µM) was 0.72 and the relative viability (Adavosertib + Decitabine; first compound 0.03162 µM) was 0.768. It also gave a relative viability (Adavosertib + Decitabine; first compound 0.1 µM) of 0.755, a relative viability (Adavosertib + Decitabine; first compound 0.3162 µM) of 0.932 and a relative viability (Adavosertib + Trametinib; first compound 0.01 µM) of 0.922. The relative viability (Adavosertib + Trametinib; first compound 0.03162 µM) was 0.829, the relative viability (Adavosertib + Trametinib; first compound 0.1 µM) was 0.776 and the relative viability (Adavosertib + Trametinib; first compound 0.3162 µM) was 0.848.
LCLC-103H gave a relative viability (Adavosertib + Phenformin; first compound 0.01 µM) of 0.347, a relative viability (Adavosertib + Phenformin; first compound 0.03162 µM) of 0.372 and a relative viability (Adavosertib + Phenformin; first compound 0.1 µM) of 0.319. The relative viability (Adavosertib + Phenformin; first compound 0.3162 µM) was 0.3, the relative viability (Adavosertib + Decitabine; first compound 0.01 µM) was 0.71 and the relative viability (Adavosertib + Decitabine; first compound 0.03162 µM) was 0.722. The relative viability (Adavosertib + Decitabine; first compound 0.1 µM) was 0.73, the relative viability (Adavosertib + Decitabine; first compound 0.3162 µM) was 0.721 and the relative viability (Adavosertib + Trametinib; first compound 0.01 µM) was 0.641. It also gave a relative viability (Adavosertib + Trametinib; first compound 0.03162 µM) of 0.688, a relative viability (Adavosertib + Trametinib; first compound 0.1 µM) of 0.668 and a relative viability (Adavosertib + Trametinib; first compound 0.3162 µM) of 0.7.
NCI-H1299 was tested, and the relative viability (Nelarabine + Navitoclax; first compound 0.01 µM) was 1.09, the relative viability (Nelarabine + Navitoclax; first compound 0.03162 µM) was 1.06 and the relative viability (Nelarabine + Navitoclax; first compound 0.1 µM) was 1.1. The relative viability (Nelarabine + Navitoclax; first compound 0.3162 µM) was 1.07 and the relative viability (Nelarabine + Navitoclax; first compound 1 µM) was 1.08.
With NCI-H522 the relative viability (Adavosertib + Phenformin; first compound 0.01 µM) was 0.679, the relative viability (Adavosertib + Phenformin; first compound 0.03162 µM) was 0.57 and the relative viability (Adavosertib + Phenformin; first compound 0.1 µM) was 0.691. For the same cell line, the relative viability (Adavosertib + Phenformin; first compound 0.3162 µM) was 0.676, the relative viability (Adavosertib + Decitabine; first compound 0.01 µM) was 0.691 and the relative viability (Adavosertib + Decitabine; first compound 0.03162 µM) was 0.692. The relative viability (Adavosertib + Decitabine; first compound 0.1 µM) was 0.776, the relative viability (Adavosertib + Decitabine; first compound 0.3162 µM) was 0.745 and the relative viability (Adavosertib + Trametinib; first compound 0.01 µM) was 0.797. The relative viability (Adavosertib + Trametinib; first compound 0.03162 µM) was 0.75, the relative viability (Adavosertib + Trametinib; first compound 0.1 µM) was 0.736 and the relative viability (Adavosertib + Trametinib; first compound 0.3162 µM) was 0.653.
